Data published in patent publication US11814688B2, “Markers for determining tumor hypoxia” (VIB VZW, priority 2015, dated 2023).

Experiments:
PHDs = details: cited from earlier work
HIFs = assay: HIF stabilization and hypoxia response program (Western blot, RT-qPCR) in MCF7 cells; format: cell-based, human; details: IOX2 50 μM
Method: Cell culture: Cells were cultured as described in the Supplemental Experimental Procedures. […] Where indicated, IOX2 (50 μM) or dimethyl α-ketoglutarate (2 mM) were added to fresh culture medium, using an equal volume of carrier (DMSO) as control for IOX2. Cells were plated at a density tailored to reach 80-95% confluence at the end of the treatment. Fresh medium was added to the cells just before the hypoxia exposure. For glutamine-free culture experiments, dialysed FBS was added to glutamine-free DMEM, and supplemented with glutamine (4 mM) for control. Extraction of DNA, RNA, proteins or metabolites was done 24 hours after the start of treatment, unless indicated otherwise. […]
RT-qPCR: For RNA extractions, cell culture medium was removed, TRIzol (Life Technologies) added and processed according to guidelines. […] Thermal cycling and fluorescence detection were done on a LightCycler 480 Real-Time PCR System (Roche), and differential expression calculated using the ΔΔCt method (Schmittgen and Livak, 2008). […]
TET mRNA concentrations and hypoxia marker gene induction: mRNA concentration analysis and statistics: Ct values were determined for each sample and gene of interest in technical duplicates, and normalized according to the corresponding amplification efficiency. […] Concentrations were expressed as averages of at least 5 independent biological replicates. […]

MCF7 cells = assay: LC/MS analysis of global 5hmC levels in MCF7 cells; format: cell-based, human; details: 24 hours
[1] = biological target: recombinant purified Tet1 enzyme (Mus musculus, UniProt Q3URK3); assay: DNA hydroxymethylation assay using purified TET enzyme at different O2 concentrations; details: conversion of 5mC to 5hmC on genomic DNA, 3 min reaction
[2] = system: breast tumors of MMTV-PyMT mice; assay: sFlk1 overexpression by hydrodynamic plasmid injection in MMTV-PyMT mice; format: in vivo, mouse
Method: Murine cancer models: Animal experiments received local ethical approval (P098/2014). Animals were intercrossed and maintained as described in Supplemental Experimental Procedures. Mammary tumors were harvested at 16 weeks from Tg(MMTV-PyMT) and Tg(MMTV-PyMT); Phd2−/+ mice. For Flk1-overexpression studies, tumors allowed to develop for 11 weeks. Subsequently, 2.5 μg of plasmid (sFlk1-overexpressing or empty p156RRL2 vector) per gram of mouse body weight was introduced in the blood stream using hydrodynamic injections (Liu et al., 1999). sFlk1 overexpression was monitored at 4 days after injection and at sacrifice ([…]), by eye bleeds followed by an enzyme-linked immunosorbent assay for sFlk1 (R&D Systems, Abingdon, UK) in blood plasma. At 12 weeks of age, mice were sacrificed and mammary tumors harvested blinded for treatment. For the Phd2^+/− experiments, male Tg(MMTV-PyMT) FVB mice were intercrossed with female Phd2^−/+ mice, yielding litters of which half have either a Tg(MMTV-PyMT) genotype or a Tg(MMTV-PyMT); Phd2^−/+ genotype. For the Phd2^wt/fl experiments, male Tg(MMTV-PyMT) FVB mice were intercrossed with female Tie2-cre; Phd2^wt/fl mice as described (Kuchnio et al 2015), yielding litters of which half have either a Tie2-cre; Tg(MMTV-PyMT); Phd2^wt/wt genotype or a Tie2-cre; Tg(MMTV-PyMT); Phd2^−/+ genotype. At 16 weeks of age, female mice were sacrificed and mammary tumors harvested.
Targeted deep BS-seq: As no murine capture kit was available for targeted BSseq, a specific ampliconBS was developed for a set of 15 tumor suppressor gene promoters and 5 oncogene promoters. More specifically, DNA was bisulfite-converted using the Imprint DNA modification kit and amplified using the MegaMix Gold 2× mastermix and validated primer pairs. Per sample, PCR products were mixed to equimolar concentrations, converted into sequencing libraries using the NEBNext DNA library prep master mix set and sequenced to a depth of ˜500×. Mapping and quantification were done as described for SeqCapEpi. The average and variance of methylation level M values in normal mammary glands were used as baseline, and amplicons displaying over 3 standard deviations more methylation (FDR-adjusted P<0.05) than this baseline were called as hypermethylated. At least 9 different tumors, each from different animals, were profiled per genotype or treatment, and differences in HM frequencies between sets of tumors were assessed using Mann-Whitney's U-test.
Immunofluorescence staining: To mark hypoxic areas, mice were injected with pimonidazole (60 mg/kg, Hypoxyprobe, Massachusetts, USA) i.p. 1 hour before sacrifice. Tumors were harvested, fixed in formaldehyde and embedded in paraffin using standard procedures. Slides were deparafinated and rehydrated 2 xylene baths (5 minutes), followed by 5 times 3 minutes in EtOH baths at decreasing concentrations (100%, 96%, 70%, 50% and water) and a 3 minute Tris-buffered saline (TBS; 50 mM Tris, 150 mM NaCl, pH 7.6) bath. The following antibodies were used for immunofluorescence staining: primary antibodies were FITC-conjugated mouse anti-pimonidazole (HP2-100, Hydroxyprobe), rabbit anti-5hmC (39791, Active Motif), rat anti-polyoma middle T (AB15085, Abcam), rat anti-CD31 (557355, BD Biosciences), rat anti-CD45 (553076, BD Biosciences), rabbit anti-Ki67 (AB15580, Abcam) and mouse anti-pan cytokeratin (C2562, Sigma). […]

Sequence of recombinant purified Tet1 enzyme (Q3URK3 1367-2039 limits assumed): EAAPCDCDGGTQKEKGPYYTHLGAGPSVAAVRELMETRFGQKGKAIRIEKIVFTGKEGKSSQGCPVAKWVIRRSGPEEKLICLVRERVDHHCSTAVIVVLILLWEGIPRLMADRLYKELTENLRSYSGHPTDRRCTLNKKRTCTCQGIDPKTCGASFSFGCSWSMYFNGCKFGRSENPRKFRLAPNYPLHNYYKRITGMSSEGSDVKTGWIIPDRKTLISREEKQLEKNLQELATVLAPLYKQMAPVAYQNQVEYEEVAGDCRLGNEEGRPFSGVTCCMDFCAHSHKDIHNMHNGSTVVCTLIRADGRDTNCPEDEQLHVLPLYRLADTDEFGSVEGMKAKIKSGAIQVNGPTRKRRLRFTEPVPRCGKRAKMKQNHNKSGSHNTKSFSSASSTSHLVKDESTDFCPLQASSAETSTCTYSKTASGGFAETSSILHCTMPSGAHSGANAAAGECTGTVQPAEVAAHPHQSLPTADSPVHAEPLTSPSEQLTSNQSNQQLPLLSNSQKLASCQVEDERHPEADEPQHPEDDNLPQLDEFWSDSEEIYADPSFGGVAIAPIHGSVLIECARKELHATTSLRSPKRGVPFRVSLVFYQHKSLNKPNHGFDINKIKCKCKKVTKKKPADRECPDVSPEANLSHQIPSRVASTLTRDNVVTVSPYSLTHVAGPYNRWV

## O=C(O)CNC(=O)c1c(O)c2ccccc2n(Cc2ccccc2)c1=O [IOX2]
PHDs
  specificity for PHDs over other αKG-dependent dioxygenases: high specificity
HIFs
  HIF stabilization and activation of the hypoxia response program: sufficient to stabilize HIFs and activate the hypoxia response program
MCF7 cells; IOX2 50 μM, carrier DMSO as control
  changes in global 5hmC levels: no changes

## COC(=O)CCC(=O)C(=O)OC [αKG, dimethyl α-ketoglutarate]
MCF7 cells; dimethyl α-ketoglutarate 2 mM added to medium
  changes in global 5hmC levels: Neither of these conditions however altered 5hmC levels

## O=O [oxygen]
[1]
  Km of Tet1 for oxygen: ~0.3 % O2

B1: sFlk1: soluble Flk1, VEGF inhibitor, overexpressed from a hydrodynamically injected plasmid (protein, UniProt P35918 20-762, looked up)
extracellular domain: ASVGLPGDFLHPPKLSTQKDILTILANTTLQITCRGQRDLDWLWPNAQRDSEERVLVTECGGGDSIFCKTLTIPRVVGNDTGAYKCSYRDVDIASTVYVYVRDYRSPFIASVSDQHGIVYITENKNKTVVIPCRGSISNLNVSLCARYPEKRFVPDGNRISWDSEIGFTLPSYMISYAGMVFCEAKINDETYQSIMYIVVVVGYRIYDVILSPPHEIELSAGEKLVLNCTARTELNVGLDFTWHSPPSKSHHKKIVNRDVKPFPGTVAKMFLSTLTIESVTKSDQGEYTCVASSGRMIKRNRTFVRVHTKPFIAFGSGMKSLVEATVGSQVRIPVKYLSYPAPDIKWYRNGRPIESNYTMIVGDELTIMEVTERDAGNYTVILTNPISMEKQSHMVSLVVNVPPQIGEKALISPMDSYQYGTMQTLTCTVYANPPLHHIQWYWQLEEACSYRPGQTSPYACKEWRHVEDFQGGNKIEVTKNQYALIEGKNKTVSTLVIQAANVSALYKCEAINKAGRGERVISFHVIRGPEITVQPAAQPTEQESVSLLCTADRNTFENLTWYKLGSQATSVHMGESLTPVCKNLDALWKLNGTMFSNSTNDILIVAFQNASLQDQGDYVCSAQDKKTKKRHCLVKQLIILERMAPMITGNLENQTTTIGETIEVTCPASGNPTPHITWFKDNETLVEDSGIVLRDGNRNLTIRRVRKEDGGLYTCQACNVLGCARAETLFIIEGAQEKTNLE
modifications: extracellular domain
[2]; after sFlk1 treatment, 20% in control
  tumor hypoxia (hypoxic area): 47%
[2]; deep BS-sequencing, panel of 15 TSG promoters
  TSGs hypermethylated relative to control in at least one out of 24 hypoxic tumors: 10 out of 15
[2]; deep BS-sequencing, sFlk-treated tumors
  hypermethylation of oncogene promoters: failed to display the same increase
[2]; during 3 weeks after hydrodynamic injection of sFlk1-expressing plasmid, versus empty plasmid
  increase in plasma sFlk1 concentrations: > 11 fold
[2]; tumor vasculature, sFlk1-treated mice
  reduction in vessel density: 42±10%
